{"source": "patent US4800194A", "about": "“Acylphosphorotriamides useful as lipid-altering agents” (priority 1986, dated 1989)", "key": {"pseudocholinesterase [1]": {"target": "T1, pseudocholinesterase (Homo sapiens, UniProt P06276)", "T1 construct": "a 100 μl aliquot of human plasma; from tissue; host or cells: human plasma (EDTA blood, stored frozen)", "T1 sequence (P06276 29-602)": "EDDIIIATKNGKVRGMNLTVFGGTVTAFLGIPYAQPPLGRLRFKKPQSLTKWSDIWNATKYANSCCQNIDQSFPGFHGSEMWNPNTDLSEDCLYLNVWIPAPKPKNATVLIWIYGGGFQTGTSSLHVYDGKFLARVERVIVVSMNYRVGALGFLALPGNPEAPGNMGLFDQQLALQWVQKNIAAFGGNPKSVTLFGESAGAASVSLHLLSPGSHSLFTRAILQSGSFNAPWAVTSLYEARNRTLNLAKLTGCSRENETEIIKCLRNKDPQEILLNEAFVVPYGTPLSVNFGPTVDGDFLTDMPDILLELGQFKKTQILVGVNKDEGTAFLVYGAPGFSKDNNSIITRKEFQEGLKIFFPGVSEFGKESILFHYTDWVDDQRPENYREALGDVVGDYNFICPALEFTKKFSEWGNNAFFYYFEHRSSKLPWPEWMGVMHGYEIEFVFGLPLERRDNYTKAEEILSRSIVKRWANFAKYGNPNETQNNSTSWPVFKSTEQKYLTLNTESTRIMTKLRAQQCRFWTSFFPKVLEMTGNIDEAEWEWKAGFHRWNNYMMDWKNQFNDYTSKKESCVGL", "test": "Inhibition of human plasma pseudocholinesterase (PChE) activity (Test Method 1)", "type": "biochemical", "settings": "30 min preincubation", "method": "The following method was used to determine the relative inhibition of pseudocholinesterase and acetylcholinesterase by compounds of the present invention.\nPlasma (Source of Pseudocholinesterase Enzyme)\nHuman Plasma was obtained from blood which was collected in ethylenediaminetetraacetic acid (EDTA) treated tubes. Collected plasma was stored frozen at -20° C. until use.\nThe buffer/chromogen solution was 0.25 mM 5,5'-dithiobis-[2-nitrobenzoic acid] (chromogen), 50 mM phosphate buffer, pH 7.2. In making up the buffer/chromogen solution and to keep it as colorless as possible, the phosphate buffer was first adjusted to pH 7.1 with NaOH; the chromogen was then added and dissolved; the pH was adjusted to 7.2; and the final volume was adjusted with addition of Milli-Q water. 5,5'-dithiobis-(2-nitrobenzoic acid) was obtained from Sigma Chemicals, St. Louis, MO.\nThe substrate solution for the pseudocholinesterase assay was 156 mM S-butyrylthiocholine iodide, and the substrate solution for the acetylcholinesterase assay was 156 mM S-acetylthiocholine iodide. Both substrate compounds were obtained from Sigma Chemicals.\nTest Compound Stock Solutions\nSolutions of all test compounds were made up at 2 μM, 20 μM, and 200 μM concentrations (in 0.9% saline solution) except as noted where lower concentrations were necessary because of decreased solubility of the compound in saline solution.\nPseudocholinesterase (PChE) Assay\nIn three separate tubes, a 100 μl aliquot of either 0.9% saline solution, 2 μM test compound solution, or 20 μM test compound solution was mixed with a 100 μl aliquot of human plasma, and the tubes were placed in a 35° C. water bath. Four cuvettes, each containing 3 ml buffer/chromogen solution mixed with 100 μl substrate solution (156 mM S-butyrylthiocholine iodide), had been placed in a heated cuvette holder (35° C.) in a Beckman DU-8B Spectrophotometer (Beckman Instruments). After the temperature of the buffer/chromogen/substrate solution in the cuvette had equilibrated for about 10 minutes, and after 0 or 30 minutes incubation of the plasma/test compound solution, a 25 μl aliquot of the plasma/test compound solutions was added to the corresponding cuvettes numbered 2-4. Cuvette #1 remained a blank. After mixing, the net absorbance of each cuvette was determined at 405 nm every 35 seconds for ten readings. From a plot of net absorbance versus time, the initial linear portion of the curve was determined, and a rate of absorbance change per minute was calculated. The positive control (100% PChE activity) was the plasma/saline solution.\nEach compound was tested for its ability to inhibit plasma pseudocholinesterase activity and acetylcholinesterase activity. Because of variation in the time points in the linear portion of the curve, inhibition values below 10-15% and higher than 85-90% are nearly indistinguishable from 0% and 100%, respectively."}, "pseudocholinesterase [2]": {"tested_on": "pseudocholinesterase", "test": "Multiple dose study in hyperlipidemic guinea pigs: plasma pseudocholinesterase activity (Test Method 2, Example 29)", "type": "in vivo, guinea pig", "settings": "2.5 mg/kg i.p. once daily", "text": "Male Hartley guinea pigs (Elm Hill Breeding Labs., Chelmsford, MA or Charles River, Wilmington, MA) was used in all experiments unless otherwise specified. The animals were maintained on a normal diet of rabbit pellets (Purina Rabbit Chow 5321, Ralston Purina, St. Louis, MO) and water containing 0.1% ascorbic acid ad libitum. For special studies in the hyperlipidemic guinea pig model, the animals were maintained on the high cholesterol diet described in this report and water containing 0.1% ascorbic acid ad libitum.\nIndividual animals were identified by ear and cage markings. The dose of drug or placebo was adjusted daily for changes in the weight of the guinea pigs. Blood samples were collected in EDTA Vacutainers by open chest cardiac puncture under carbon dioxide anesthesia from guinea pigs which had been fasted overnight. The animals were then sacrificed by CO2 inhalation. Blood samples were centrifuged at 2000 rpm for 15 min. in an IEC centrifuge (International Equipment Co., Boston, MA) with a 240 rotor for isolation of plasma. Lipoprotein analyses of plasma were carried out on the same day as the blood collection. Assays of pseudocholinesterase activity were carried out within a week of blood collection on plasma samples which had been stored at 4° C.\nThe assay method used was based on the procedure described in Ellman, G. L., K. D. Courtney, V. Andres & R. M. Featherstone, \"A New and Rapid Colorimetric Determination of Acetylcholinesterase Activity\", Biolchemical Pharmacology, Vol. 7 (1961), pp. 88-95. Reactions were carried out at 35° C. in pH 7.2 NaH2 PO4 50 mM buffer containing 5 mM butyrylthiocholine iodide (substrate) and 0.25 mM 5,5'-dithiobis-[2-nitrobenzoic acid] (chromogen). The rate of change of absorbance at 405 nm with time was monitored by means of a Cary 16 spectrophotometer (Varian Associates, Walnut Creek, CA) or a Beckman DU-8B spectrophotometer (Beckman Instruments, Inc., Palo Alto, CA). Corrections were made for non-enzymic hydrolysis of substrate.\nEnzyme Buffer: 6.90 g (50 mmol) NaH2 PO4.H2 O+[…] (0.25 mmol) 5,5'-dithiobis-(2-nitrobenzoic acid). The reagents were dissolved in Milli-Q purified distilled water, titrated to pH 7.2 with 1N NaOH, and diluted to one liter with water.\nSubstrate: 0.2476 g (0.780 mmol) S-butyrylthiocholine iodide (BTC). The substrate was dissolved in 5 ml of Milli-Q purified distilled water. [BTC]=156 mM.\nInto a 1-cm pathlength cuvette was placed 3.0 ml of enzyme buffer. At least 10 min. was allowed for temperature equilibration. A 100 μl aliquot of substrate was added to the cuvette, the solution was mixed and about 3 min. was allowed for determination of the non-enzymic rate of substrate hydrolysis before the enzymic reaction was initiated by addition of 25 μl of plasma. The increase in absorbance at 405 nm was measured vs. a blank containing enzyme buffer.\nInto a 1-cm pathlength cuvette was placed 3.0 ml of enzyme buffer and 100 μl of substrate. The solution was mixed and about 10 min. was allowed for temperature equilibration. The reaction was initiated by addition of 25 μl of plasma. The increase in absorbance at 405 nm was measured vs. a blank containing enzyme buffer and substrate. No additional correction for non-enzymic substrate hydrolysis was necessary.\nA 1:15 mixture of cholesterol:corn oil was prepared by adding 25 g of USP cholesterol (Sigma Chemical Company, St. Louis, MO) to 375 g of corn oil (Mazola, Best Foods, CPC International, Inc., Englewood Cliffs, NJ). The mixture was stirred, sonicated, and heated in a hot water bath until the cholesterol completely dissolved. It was necessary to keep the mixture warm (50°-60° C.) in order to prevent congealing.\nBatches of feed were prepared by adding 160 g of the cholesterol-corn oil solution to 840 g of Purina Rabbit Chow 5321. The pellets and lipid mixture were thoroughly mixed in a 2-liter or 3-liter Erlenmeyer flask to ensure uniform coating of the pellets. The feed was then stored at room temperature until needed. […]"}}, "data": [{"smiles": "NP(N)(=O)NC(=O)c1ccc(F)cc1", "note": "[Test Compound 4, N-(diaminophosphinyl)-4-fluorobenzamide]", "values": [{"measurement": "inhibition at 1 µM", "setting": "pseudocholinesterase [1]; 1 μM", "value": 92.8, "unit": "%"}, {"measurement": "inhibition at 10 µM", "setting": "pseudocholinesterase [1]; 10 μM", "value": 99.1, "unit": "%"}, {"measurement": "% PChE Inhibition (Compared to Control)", "setting": "pseudocholinesterase [2]; day 1", "value": 51.6, "unit": "%"}, {"measurement": "% PChE Inhibition (Compared to Control)", "setting": "pseudocholinesterase [2]; day 3", "value": 45.0, "unit": "%"}, {"measurement": "% PChE Inhibition (Compared to Control)", "setting": "pseudocholinesterase [2]; day 7", "value": 58.6, "unit": "%"}, {"measurement": "% PChE Inhibition (Compared to Control)", "setting": "pseudocholinesterase [2]; day 10", "value": 65.0, "unit": "%"}, {"measurement": "% PChE Inhibition (Compared to Control)", "setting": "pseudocholinesterase [2]; day 14", "value": 69.0, "unit": "%"}, {"measurement": "plasma pseudocholinesterase activity vs saline-treated control", "setting": "pseudocholinesterase [2]; high cholesterol diet, result in words", "value": "substantially lower plasma pseudocholinesterase activity"}]}]}
